Values quoted from earlier work, collected in patent publication US20020187120A1, “Method for treating gout and reducing serum uric acid” (GelTex Pharmaceutical, Inc., priority 2001, published 2002).

Conditions: administered orally

In the case of `COc1cc2c(c(OC)c1OC)-c1ccc(OC)c(=O)cc1[C@@H](NC(C)=O)CC2` [colchicine], the “people who cannot tolerate the drug because of side effects” value is listed as 80%.
